According to PMC9369419 (International Journal of Molecular Sciences, 2022):

Tests used:
GluA2 = target: T1, GluA2 (Rattus norvegicus, UniProt P19491); experiment: Radioligand binding at recombinant homomeric GluA2 in Sf9 membranes; details: recombinant rat homomeric receptor, [3H]-(RS)-AMPA, mean ± SEM
T1 construct: made in house; host or cells: Sf9 insect cells (membranes)
Procedure: (§1) Ligand binding affinities at recombinant rat homomeric GluA2, GluK1−3, and GluK5 were determined as previously detailed. […] The filters were dried at 70 °C for 1 h, and 50 μL/well Microscint 20 (PerkinElmer, Waltham, MA, USA) was added. Radioactivity was detected with a TopCounter (PerkinElmer, Waltham, MA, USA). GluA2 and GluK5 assays were filtered on GF/C type filters using Millipore 12-well filtration manifolds (Merck Life Science, Søborg, Denmark) and washed twice with ice-cold assay buffer. Filters were placed in pony vials (PerkinElmer, Waltham, MA, USA), 3 mL of Ultima Gold scintillation fluid (PerkinElmer, Waltham, MA, USA) was added, and DPM (disintegrations per minute) were determined using a TriCarb 2900 scintillation counter (PerkinElmer, Waltham, MA, USA).
(§2) All competition curves (n ≥ 3 per ligand) were determined in triplicate. Data were analyzed using GraphPad Prism 6 (GraphPad Software, San Diego, CA, USA) to determine ligand affinity (Ki) and Hill coefficient (nH) using the one-site Ki and four-parameter logistics equations, respectively.

GluK3 [1] = target: T2, GluK3 (Rattus norvegicus, UniProt P42264); experiment: Radioligand binding at recombinant homomeric GluK3 in Sf9 membranes; details: recombinant rat homomeric receptor, [3H]-kainic acid, mean ± SEM
T2 construct: made in house; host or cells: Sf9 insect cells (membranes)
Procedure: as §1, §2

GluK1 = target: T3, GluK1 (Rattus norvegicus, UniProt P22756); experiment: Radioligand binding at recombinant homomeric GluK1 in Sf9 membranes; details: recombinant rat homomeric receptor, [3H]-(S)-NF608, mean ± SEM
T3 construct: made in house; host or cells: Sf9 insect cells (membranes)
Procedure: as §1, §2

GluK5 = target: T4, GluK5 (Rattus norvegicus, UniProt Q63273); experiment: Radioligand binding at recombinant homomeric GluK5 in Sf9 membranes; details: recombinant rat homomeric receptor, [3H]-kainic acid, mean ± SEM
T4 construct: made in house; host or cells: Sf9 insect cells (membranes)
T4 sequence (Q63273 15-979): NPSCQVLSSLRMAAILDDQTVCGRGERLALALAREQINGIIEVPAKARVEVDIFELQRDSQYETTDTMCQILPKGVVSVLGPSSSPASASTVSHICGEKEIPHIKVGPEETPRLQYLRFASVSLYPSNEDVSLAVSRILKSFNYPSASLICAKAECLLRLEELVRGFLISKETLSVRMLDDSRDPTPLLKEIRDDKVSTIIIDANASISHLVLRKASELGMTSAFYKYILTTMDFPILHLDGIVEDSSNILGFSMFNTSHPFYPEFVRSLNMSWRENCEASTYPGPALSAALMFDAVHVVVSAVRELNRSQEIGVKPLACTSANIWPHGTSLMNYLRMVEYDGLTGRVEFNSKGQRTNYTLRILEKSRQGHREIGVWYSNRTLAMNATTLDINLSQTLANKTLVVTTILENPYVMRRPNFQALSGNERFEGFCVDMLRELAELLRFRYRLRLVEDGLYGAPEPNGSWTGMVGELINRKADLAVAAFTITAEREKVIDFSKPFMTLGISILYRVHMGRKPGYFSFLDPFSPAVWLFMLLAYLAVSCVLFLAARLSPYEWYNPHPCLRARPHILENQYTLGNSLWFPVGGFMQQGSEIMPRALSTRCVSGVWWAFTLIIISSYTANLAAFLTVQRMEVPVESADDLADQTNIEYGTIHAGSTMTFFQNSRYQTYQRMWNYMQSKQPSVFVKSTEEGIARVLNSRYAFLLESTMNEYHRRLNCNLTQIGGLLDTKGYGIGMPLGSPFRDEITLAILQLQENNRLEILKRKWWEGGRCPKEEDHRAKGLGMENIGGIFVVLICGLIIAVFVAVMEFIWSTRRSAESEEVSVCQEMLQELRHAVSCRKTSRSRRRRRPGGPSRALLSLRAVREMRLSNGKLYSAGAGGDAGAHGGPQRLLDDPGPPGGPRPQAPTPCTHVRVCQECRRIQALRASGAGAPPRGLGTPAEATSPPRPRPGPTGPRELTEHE
Procedure: as §1, §2

GluK2 = target: T5, GluK2 (Rattus norvegicus, UniProt P42260); experiment: Radioligand binding at recombinant homomeric GluK2 in Sf9 membranes; details: recombinant rat homomeric receptor, [3H]-kainic acid, mean ± SEM
T5 construct: made in house; host or cells: Sf9 insect cells (membranes)
Procedure: as §1, §2

GluK3 [2] = target: T2, GluK3; details: at least; cited from earlier work
GluK3a = target: T6, GluK3a (Rattus norvegicus, UniProt P42264); experiment: Intracellular Ca2+ imaging assay, HEK293 cells expressing GluK3a; format: cell-based; details: 100 µM KA + 300 µM BPAM344, Ca2+ fluorescence, read-out: IC50, antagonism of agonist-evoked responses at GluK3
T6 construct: expressed in transfected cells
Description: For the determination of antagonistic activity of compounds at GluK1, GluK3 and GluA2 receptors, stable HEK293 cell lines expressing rat GluK1b(Q), GluK3a, and GluA2(Q)i were created. A polyclonal stable cell line expressing GluK3a was created as described previously. For the creation of polyclonal stable cell lines expressing GluK1and GluA2 receptors, cDNA encoding blasticidin-S deaminase (blas) enzymes were inserted into the pIRES plasmid vector (Clontech, Mountain View, CA, USA) to create the plasmid vector pRES(blas). Subsequently, cDNA for rat GluK1(Q)1b and the flip isoform of rat GluA2(Q)i were inserted into pRES(blas) to create the expression constructs GluK1b(Q)pIRES(blas) and GluA2i(Q)pIRES(blas), respectively. These were used to transfect GripTite^TM HEK293 cells followed by selecting with 20 µg/mL blasticidin (Invivogen, Toulouse, France) and 0.50 mg/mL geneticin in the presence of 20 µM of the AMPA receptor antagonist CNQX (Tocris, Bristol, UK) until stably transfected GluK1b(Q) and GluA2(Q)i cell lines were obtained. For functional assays, cells were plated into clear-bottomed, black 96-well fluorescence culture plates (Corning, Vordingborg, Denmark), and when >70% confluent, the cells were loaded with 2 μM Fluo 4-AM calcium sensitive dye (Abcam, Cambridge, UK) and used for the imaging of agonist-evoked changes in intracellular Ca^2+ using a FlexStation I plate reader (Molecular Devices, San Jose, CA, USA). […] Changes in dye fluorescence in response to the addition of an agonist solution were then measured at 538 nm using excitation at 485 nm and emission cut-off at 515 nm. Baseline fluorescence was measured for 16 s before the addition of 50 µL agonist solution to each well of the assay plate, and fluorescence was measured for 120 to 160 s after addition of the agonists. Peak change in fluorescence was calculated as the difference between the maximal observed increase in fluorescence and pre-agonist baseline fluorescence. The agonist solutions contained 100 µM KA together with 300 µM of the KAR positive allosteric modulator BPAM344 (Sigma-Aldrich Chemical, St. Louis, MO, USA) for GluK1 and GluK3 experiments or 100 µM glutamate together with 100 µM of the AMPAR positive allosteric modulator cyclothiazide for GluA2 experiments (HelloBio, Bristol, UK). Responses were determined in at least triplicate at each compound concentration.

T2 sequence (P42264 32-919): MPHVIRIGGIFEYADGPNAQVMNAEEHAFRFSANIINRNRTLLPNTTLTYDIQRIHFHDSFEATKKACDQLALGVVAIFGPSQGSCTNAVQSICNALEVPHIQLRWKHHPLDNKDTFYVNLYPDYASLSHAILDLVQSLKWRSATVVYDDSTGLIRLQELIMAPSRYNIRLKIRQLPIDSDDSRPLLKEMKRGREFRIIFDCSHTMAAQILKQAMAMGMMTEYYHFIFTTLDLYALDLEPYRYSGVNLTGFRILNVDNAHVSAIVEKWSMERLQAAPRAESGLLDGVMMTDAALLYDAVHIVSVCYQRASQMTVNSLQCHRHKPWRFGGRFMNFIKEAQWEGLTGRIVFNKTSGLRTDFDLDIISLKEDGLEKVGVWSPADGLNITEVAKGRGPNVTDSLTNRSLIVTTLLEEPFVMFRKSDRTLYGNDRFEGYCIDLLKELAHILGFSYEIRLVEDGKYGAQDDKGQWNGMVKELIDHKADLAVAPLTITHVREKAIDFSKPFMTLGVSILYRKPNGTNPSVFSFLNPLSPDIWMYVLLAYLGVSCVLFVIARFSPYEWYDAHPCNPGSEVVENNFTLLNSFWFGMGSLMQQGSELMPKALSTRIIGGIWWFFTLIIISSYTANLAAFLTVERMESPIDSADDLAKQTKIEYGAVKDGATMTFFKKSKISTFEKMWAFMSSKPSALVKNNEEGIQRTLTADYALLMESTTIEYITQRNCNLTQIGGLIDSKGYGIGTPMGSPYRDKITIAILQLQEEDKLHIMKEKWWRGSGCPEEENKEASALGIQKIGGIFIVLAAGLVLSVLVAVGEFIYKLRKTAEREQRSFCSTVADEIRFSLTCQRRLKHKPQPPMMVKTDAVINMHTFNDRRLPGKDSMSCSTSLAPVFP
T1 sequence (P19491 22-883): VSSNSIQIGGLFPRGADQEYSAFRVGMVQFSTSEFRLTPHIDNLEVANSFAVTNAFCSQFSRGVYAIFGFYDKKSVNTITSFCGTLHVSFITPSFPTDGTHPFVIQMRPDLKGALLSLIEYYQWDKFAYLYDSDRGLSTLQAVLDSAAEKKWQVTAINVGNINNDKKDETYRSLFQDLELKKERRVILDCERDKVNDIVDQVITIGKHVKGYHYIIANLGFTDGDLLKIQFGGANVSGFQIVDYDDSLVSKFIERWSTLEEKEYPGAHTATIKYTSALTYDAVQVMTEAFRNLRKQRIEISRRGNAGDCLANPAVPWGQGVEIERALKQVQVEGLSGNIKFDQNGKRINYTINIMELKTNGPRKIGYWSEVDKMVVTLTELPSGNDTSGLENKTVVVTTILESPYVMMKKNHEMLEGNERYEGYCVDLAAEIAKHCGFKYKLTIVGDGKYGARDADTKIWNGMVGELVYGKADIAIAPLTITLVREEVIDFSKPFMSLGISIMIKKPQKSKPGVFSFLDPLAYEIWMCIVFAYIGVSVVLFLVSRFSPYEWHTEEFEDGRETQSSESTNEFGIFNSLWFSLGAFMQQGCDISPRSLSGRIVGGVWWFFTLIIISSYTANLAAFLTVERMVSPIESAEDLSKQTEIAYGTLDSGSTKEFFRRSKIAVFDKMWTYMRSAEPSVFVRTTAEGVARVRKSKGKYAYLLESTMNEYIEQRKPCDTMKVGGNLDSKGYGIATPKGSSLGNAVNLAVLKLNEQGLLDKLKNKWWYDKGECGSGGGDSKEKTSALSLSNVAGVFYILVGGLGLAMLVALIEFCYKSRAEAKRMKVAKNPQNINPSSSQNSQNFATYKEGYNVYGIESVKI
T5 sequence (P42260 32-908): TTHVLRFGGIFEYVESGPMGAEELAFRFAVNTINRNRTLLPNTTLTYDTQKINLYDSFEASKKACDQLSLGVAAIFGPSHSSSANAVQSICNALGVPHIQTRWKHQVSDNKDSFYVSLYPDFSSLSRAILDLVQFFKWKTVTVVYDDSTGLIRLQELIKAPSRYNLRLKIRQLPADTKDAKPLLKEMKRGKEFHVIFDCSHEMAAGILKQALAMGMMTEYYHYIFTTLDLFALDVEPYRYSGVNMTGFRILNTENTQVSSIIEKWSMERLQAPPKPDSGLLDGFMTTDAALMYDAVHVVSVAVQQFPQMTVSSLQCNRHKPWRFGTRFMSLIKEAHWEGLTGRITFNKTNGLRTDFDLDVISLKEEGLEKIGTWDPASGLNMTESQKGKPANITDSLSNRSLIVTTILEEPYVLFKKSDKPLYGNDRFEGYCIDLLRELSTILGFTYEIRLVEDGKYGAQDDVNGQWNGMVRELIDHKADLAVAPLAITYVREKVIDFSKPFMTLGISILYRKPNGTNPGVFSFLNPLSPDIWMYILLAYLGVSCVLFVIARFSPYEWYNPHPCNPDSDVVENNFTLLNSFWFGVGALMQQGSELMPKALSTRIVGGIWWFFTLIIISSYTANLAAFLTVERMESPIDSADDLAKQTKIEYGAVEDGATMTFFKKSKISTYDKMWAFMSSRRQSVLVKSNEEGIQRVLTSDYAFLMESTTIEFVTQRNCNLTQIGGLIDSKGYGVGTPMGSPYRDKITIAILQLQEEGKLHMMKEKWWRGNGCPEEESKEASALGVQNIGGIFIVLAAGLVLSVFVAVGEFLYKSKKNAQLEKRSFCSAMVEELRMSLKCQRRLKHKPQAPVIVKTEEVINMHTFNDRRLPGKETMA
T3 sequence (P22756 31-949): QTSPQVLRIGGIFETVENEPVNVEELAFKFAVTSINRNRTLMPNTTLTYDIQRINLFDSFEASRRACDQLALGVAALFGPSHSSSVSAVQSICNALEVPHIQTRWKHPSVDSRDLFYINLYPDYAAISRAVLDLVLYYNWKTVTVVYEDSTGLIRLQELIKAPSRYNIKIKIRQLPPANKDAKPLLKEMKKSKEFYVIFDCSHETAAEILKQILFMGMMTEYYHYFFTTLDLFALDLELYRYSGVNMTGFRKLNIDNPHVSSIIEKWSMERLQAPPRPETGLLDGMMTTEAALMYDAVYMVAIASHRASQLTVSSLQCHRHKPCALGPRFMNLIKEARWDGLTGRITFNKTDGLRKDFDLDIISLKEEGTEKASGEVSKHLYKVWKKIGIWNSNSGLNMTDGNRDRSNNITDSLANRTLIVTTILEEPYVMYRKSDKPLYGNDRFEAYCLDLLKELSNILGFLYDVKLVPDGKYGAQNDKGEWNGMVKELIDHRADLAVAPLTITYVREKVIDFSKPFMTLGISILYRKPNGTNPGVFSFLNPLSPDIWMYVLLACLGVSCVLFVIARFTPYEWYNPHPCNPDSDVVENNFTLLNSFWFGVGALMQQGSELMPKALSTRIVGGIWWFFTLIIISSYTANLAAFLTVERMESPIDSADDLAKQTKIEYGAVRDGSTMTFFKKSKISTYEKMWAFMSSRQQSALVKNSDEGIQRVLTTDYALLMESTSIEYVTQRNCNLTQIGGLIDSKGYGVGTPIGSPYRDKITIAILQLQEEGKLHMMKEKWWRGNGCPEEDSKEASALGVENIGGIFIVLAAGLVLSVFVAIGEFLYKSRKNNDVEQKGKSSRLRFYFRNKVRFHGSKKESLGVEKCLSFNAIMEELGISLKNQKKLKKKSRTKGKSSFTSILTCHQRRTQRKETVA
T6 sequence (P42264 32-919): as the sequence (P42264 32-919) above

| Ki (GluA2) [µM] | Ki (GluK3 [1]) [µM] | Ki (GluK1) [µM] | Ki (GluK5) [µM] | melting point [°C] | Ki (GluK2) [µM] | IC50 (GluK3a) [µM] | SMILES | binding preference at GluK3 over the GluK1, GluK2 and GluK5 subtypes (GluK3 [2]) |
| --- | --- | --- | --- | --- | --- | --- | --- | --- |
| > 100 | 50 ± 12 | > 100 | > 100 | 305 to 306 | > 100 | – | CCCc1ccc(C#Cc2ccc3c(c2)[nH]c(=O)c(=O)n3NC(=O)c2ccccc2)cc1 [Compound 8] | – |
| > 100 | 3.5 ± 0.7 | > 100 | > 100 | 326 to 327 | > 100 | – | O=C(Nn1c(=O)c(=O)[nH]c2cc(C#Cc3ccc(Cl)cc3)ccc21)c1ccccc1 [Compound 10] | – |
| > 100 | 25 ± 6 | > 100 | > 100 | 239 to 241 | > 100 | – | O=C(Nn1c(=O)c(=O)[nH]c2cc(C#Cc3ccncc3)ccc21)c1ccccc1 [Compound 25] | – |
| – | – | – | – | – | – | – | N[C@@H](Cc1c[nH]c(S)n1)C(=O)O [(S)-2-mercaptohistidine] | 15–100 fold |
| ~100 | 3.2 ± 0.6 | > 100 | > 100 | 313 to 314 | > 100 | – | O=C(Nn1c(=O)c(=O)[nH]c2cc(C#Cc3cccc(O)c3)ccc21)c1ccccc1 [Compound 19] | – |
| – | ~100 | > 100 | – | 274 to 275 | – | – | Nc1cccc(C#Cc2ccc3c(c2)[nH]c(=O)c(=O)n3NC(=O)c2ccccc2)c1 [Compound 22] | – |
| – | 6.1 ± 0.8 | ≥ 100 | – | 325 to 327 | – | – | Cc1ccc(C#Cc2ccc3c(c2)[nH]c(=O)c(=O)n3NC(=O)c2ccccc2)cc1 [Compound 6] | – |
| > 100 | 1.4 ± 0.2 | > 100 | > 100 | 312 to 314 | > 100 | – | Nc1ccc(C#Cc2ccc3c(c2)[nH]c(=O)c(=O)n3NC(=O)c2ccccc2)cc1 [Compound 23] | – |
| > 100 | 20 ± 1 | > 100 | > 100 | 308 to 310 | > 100 | – | CCc1ccc(C#Cc2ccc3c(c2)[nH]c(=O)c(=O)n3NC(=O)c2ccccc2)cc1 [Compound 7] | – |
| > 100 | 5.8 ± 1.5 | ~100 | > 100 | 298 to 300 | > 100 | – | O=C(Nn1c(=O)c(=O)[nH]c2cc(C#Cc3ccc(CO)cc3)ccc21)c1ccccc1 [Compound 20] | – |
| > 100 | 28 ± 2 | > 100 | > 100 | 310 to 312 | > 100 | – | O=C(O)c1cccc(C#Cc2ccc3c(c2)[nH]c(=O)c(=O)n3NC(=O)c2ccccc2)c1 [Compound 14] | – |
| > 100 | 31 ± 4 | > 100 | > 100 | 348 to 349 | > 100 | – | O=C(O)c1ccc(C#Cc2ccc3c(c2)[nH]c(=O)c(=O)n3NC(=O)c2ccccc2)cc1 [Compound 15] | – |
| > 100 | 1.4 ± 0.4 | ~100 | > 100 | 318 to 320 | ~100 | – | Cc1cccc(C#Cc2ccc3c(c2)[nH]c(=O)c(=O)n3NC(=O)c2ccccc2)c1 [Compound 5] | – |
| > 100 | 0.28 ± 0.02 | 11 ± 2 | > 100 | 318 to 320 | 12 ± 2 | 0.6 | O=C(Nn1c(=O)c(=O)[nH]c2cc(C#Cc3cncnc3)ccc21)c1ccccc1 [Compound 27] | – |
| – | 7.9 ± 0.7 | ≥ 100 | – | 262 to 263 | – | – | O=C(Nn1c(=O)c(=O)[nH]c2cc(C#Cc3ccc(Oc4ccccc4)cc3)ccc21)c1ccccc1 [Compound 13] | – |
| – | 1 ± 0.1 | 14 ± 2 | – | 303 to 305 | – | – | Nc1ccccc1C#Cc1ccc2c(c1)[nH]c(=O)c(=O)n2NC(=O)c1ccccc1 [Compound 21] | – |
| > 100 | 8.3 ± 0.4 | > 100 | > 100 | 304 to 305 | > 100 | – | COc1ccc(C#Cc2ccc3c(c2)[nH]c(=O)c(=O)n3NC(=O)c2ccccc2)cc1 [Compound 12] | – |
| – | 24 ± 4 | 39 ± 4 | – | 273 to 275 | – | – | CN(C)c1ccc(C#Cc2ccc3c(c2)[nH]c(=O)c(=O)n3NC(=O)c2ccccc2)cc1 [Compound 24] | – |
| – | – | – | 152 ± 23 | – | 5.4 ± 1.2 | – | NS(=O)(=O)c1cccc2c1c([N+](=O)[O-])cc1nc(O)c(O)nc12 [NBQX, reference compound] | – |
| > 100 | 38 ± 10 | > 100 | > 100 | 263 to 264 | > 100 | – | CC(C)c1ccc(C#Cc2ccc3c(c2)[nH]c(=O)c(=O)n3NC(=O)c2ccccc2)cc1 [Compound 9] | – |
| > 100 | ~100 | > 100 | > 100 | 303 to 305 | > 100 | – | NS(=O)(=O)c1ccc(C#Cc2ccc3c(c2)[nH]c(=O)c(=O)n3NC(=O)c2ccccc2)cc1 [Compound 16] | – |
| – | 14 ± 2 | > 100 | – | – | – | – | O=C(Nn1c(=O)c(=O)[nH]c2cc(-c3cc4ccccc4o3)ccc21)c1ccccc1 [Compound 18] | – |
| 0.23 ± 0.02 | 0.13 ± 0.03 | 0.15 ± 0.05 | 3.8 ± 0.1 | – | 0.091 ± 0.015 | 2.2 | O=C(Nn1c(=O)c(=O)[nH]c2cc(C#Cc3ccc4[nH]ncc4n3)ccc21)c1ccccc1 [Compound 29] | – |
| > 100 | > 100 | ~100 | > 100 | – | > 100 | – | O=C(Nn1c(=O)c(=O)[nH]c2cc(C#Cc3ccc(C(F)(F)F)cc3)ccc21)c1ccccc1 [Compound 11] | – |
